According to US20160312240A1, “MODIFIED PYR/PYL RECEPTORS ACTIVATED BY ORTHOGONAL LIGANDS” (The Regents of the University of California, priority 2010, published 2016):

Legend:
[1] = system: PYR1 variants 27C-1, 27C-2, 27C-3, 27C-5, 27C-16, 27C-18, 27C-19, 27C-20, 27C-21 (Table 8); assay: MAV99 growth selection, third round of shuffling; type: cell-based, Arabidopsis; details: 1.5 μM fenhexamid; media lacking uracil; Table 8 variants
Procedure: A third round of shuffling was conducted by combining DNA for the “27B′” mutants shown in Table 7 and ePCR1 library to create a library of ˜150,000 clones which was then transformed into MAV99 pAD-HAB 1. Constitutive mutants were then depleted by growth on FOA after which fenhexamid sensitive mutants were selected by growth on media lacking uracil but containing 1.5 μM fenhexamid, using the methods described above.

[2] = system: wild-type Columbia plants; assay: Water loss from detached aerial rosettes; type: in vivo, Arabidopsis; details: 100 μM spray, approximately 16 hours pretreatment, FIG. 7
Procedure: FIG. 7. […] Columbia plants were treated with control, 100 μM fenhexamid, or 100 μM ABA containing solutions. Plants were treated as described in the Examples section below and water loss from aerial rosettes was measured after detachment.
Transgenic or control (wild-type) plants were grown under a 16 hr light/8 hr dark cycle for 3 weeks and then treated with either 100 μM (+)-ABA, 100 μM fenhexamid, or control (containing 0.1% Tween-20, 0.1% DMSO). ABA treatments were conducted as a positive control. The plants were sprayed in the evening prior to conducting water loss experiments. The next morning, approximately 16 hours post-treatment, the above-ground rosettes of the experimental samples were collected and transferred to weighing dishes, 8 plants per measured sample, and maintained under ˜90-100 μEinstein/m^2 fluorescent light illumination. Four groups of eight plants were measured per time point at 20 min intervals. The experiments were repeated three times over the course of an eight-week interval. […] It should be noted, however, that ABA can activate all of the PYR/PYL receptors in a plant genome (at least 13 in Arabidopsis), while fenhexamid is selectively activating a single engineered receptor, PYL2^K64R,Y124H,M164I,V67I,V114I. […]

[3] = biological target: T1, PYL2 K64R,Y124H,M164I,V67I,V114I (Arabidopsis thaliana, UniProt O80992, K64R/M164I/V114I/V67I/Y124H); assay: In vitro PP2C inhibition assay, 2:1 receptor to phosphatase; type: biochemical; details: FIG. 3B
T1 construct: expressed in transfected cells; host or cells: Saccharomyces cerevisiae Y190 pAD-HAB1
T1 sequence (Q9CAJ0 23-511): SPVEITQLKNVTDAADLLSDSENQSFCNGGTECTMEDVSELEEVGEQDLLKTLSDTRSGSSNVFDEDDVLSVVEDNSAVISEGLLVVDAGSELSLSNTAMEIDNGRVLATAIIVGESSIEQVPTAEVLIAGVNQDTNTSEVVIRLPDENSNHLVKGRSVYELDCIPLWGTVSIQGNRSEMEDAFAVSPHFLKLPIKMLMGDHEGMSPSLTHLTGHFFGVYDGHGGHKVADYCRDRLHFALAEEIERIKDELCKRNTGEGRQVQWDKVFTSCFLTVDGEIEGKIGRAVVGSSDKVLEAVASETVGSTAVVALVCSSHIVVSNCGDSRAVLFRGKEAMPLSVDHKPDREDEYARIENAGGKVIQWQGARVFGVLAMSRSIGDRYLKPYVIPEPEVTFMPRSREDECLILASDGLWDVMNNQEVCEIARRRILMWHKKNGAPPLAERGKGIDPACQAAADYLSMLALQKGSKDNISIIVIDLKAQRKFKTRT
T1 sequence (O80992 whole entry K64R/V67I/V114I/Y124H/M164I): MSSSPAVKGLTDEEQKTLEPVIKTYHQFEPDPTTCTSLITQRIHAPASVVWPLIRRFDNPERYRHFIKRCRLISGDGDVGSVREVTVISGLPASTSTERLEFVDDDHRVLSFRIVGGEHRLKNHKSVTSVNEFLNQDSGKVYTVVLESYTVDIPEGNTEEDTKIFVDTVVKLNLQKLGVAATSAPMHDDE
Procedure: FIGS. 3A-3B. […] FIG. 3A. […] In addition, pocket residue mutations at V114I and/or V67I were introduced. The mutants (listed on left side of panel) were constructed in pBD-PYL2 and transformed into Y190 pAD-HAB1 yeast cells. The transformants were then grown on increasing concentrations of fenhexamid and scored for responsiveness using X-gal staining, performed as described in Park et al., 2009. […] FIG. 3B. In vitro characterization of PYL2 K64R, Y124H, M164I, V67I, V114I mutant. Recombinant wild-type and mutant PYL2 proteins were produced as described previously and used in PP2C assays, as described previously (Park et al., 2009), with the exception that a 2:1 ratio of receptor for phosphatase was used.
PYR1 is a member of the PYR/PYL receptor protein family, which in Arabidopsis contains 14 members. […] Given the conserved nature of these residues, we speculated that fenhexamid sensitivity could be engineered into other receptor family members by mutating homologous residues in other PYR/PYL receptors. To test this, we introduced the homologous mutations in PYL2 (K64R, corresponding to K59R in PYR1; Y124H, corresponding to Y120H in PYR1; and M164I, corresponding to M158I in PYR1), creating the mutant PYL2^K64R,Y124H,M164I. […]

PYR1 mutant 27-9 = biological target: T2, PYR1 mutant 27-9 (Arabidopsis thaliana, UniProt O49686, E153G/K59R/P42S/Y120C); assay: Yeast two-hybrid LacZ reporter assay (pAD-HAB1 YRG-2 strain); type: cell-based
T2 construct: expressed in transfected cells; host or cells: S. cerevisiae YRG-2 expressing pAD-HAB1
T2 sequence (O49686 whole entry P42S/K59R/Y120C/E153G): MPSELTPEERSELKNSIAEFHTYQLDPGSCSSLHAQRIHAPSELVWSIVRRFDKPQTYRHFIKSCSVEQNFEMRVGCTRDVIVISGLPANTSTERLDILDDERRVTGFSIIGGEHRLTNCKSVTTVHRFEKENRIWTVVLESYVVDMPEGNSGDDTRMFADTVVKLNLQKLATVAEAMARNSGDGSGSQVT
T2 sequence (Q9CAJ0 whole entry, further chain): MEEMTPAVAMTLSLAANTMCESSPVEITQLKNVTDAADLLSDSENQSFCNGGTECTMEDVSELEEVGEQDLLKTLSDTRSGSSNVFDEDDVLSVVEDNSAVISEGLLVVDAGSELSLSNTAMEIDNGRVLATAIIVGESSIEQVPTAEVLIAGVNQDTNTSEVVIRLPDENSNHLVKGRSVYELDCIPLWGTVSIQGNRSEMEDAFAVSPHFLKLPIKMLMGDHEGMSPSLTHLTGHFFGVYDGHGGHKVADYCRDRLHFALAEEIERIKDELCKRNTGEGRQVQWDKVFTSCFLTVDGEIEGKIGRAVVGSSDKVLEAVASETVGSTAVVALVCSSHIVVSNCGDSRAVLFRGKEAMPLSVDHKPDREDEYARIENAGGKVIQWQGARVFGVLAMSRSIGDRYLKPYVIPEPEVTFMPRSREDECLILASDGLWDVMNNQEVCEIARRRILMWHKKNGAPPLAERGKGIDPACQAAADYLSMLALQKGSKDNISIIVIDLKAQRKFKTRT
Procedure: (§1) Plasmids for three representative mutant clones (27-9, 27-18, and 27-36) were isolated from the primary yeast cells and transformed into a pAD-HAB1 expressing YRG-2 reporter strain (Park et al., Science 324:1068-1071 (2009)) in which Ga14 drives expression of a LacZ reporter gene to allow colorimetric indication of agonist response. Fenhexamid was applied at concentrations of 1, 5, 10, 25, and 50 μM. […] Mutant 27-36 was responsive to fenhexamid at 25 and 50 μM concentrations.

PYR1 mutant 27-36 = biological target: T3, PYR1 mutant 27-36 (Arabidopsis thaliana, UniProt O49686, E12G/E43G/I110S/K59R/N133D); assay: as above; type: cell-based; details: 25 and 50 μM (applied 1-50 μM)
T3 construct: expressed in transfected cells; host or cells: S. cerevisiae YRG-2 expressing pAD-HAB1
T3 sequence (Q9CAJ0 23-511): as the sequence (Q9CAJ0 23-511) above
T3 sequence (O49686 whole entry E12G/E43G/K59R/I110S/N133D): as the sequence (O49686 whole entry P42S/K59R/Y120C/E153G) above, with E12G, S42P, E43G, I110S, C120Y, N133D, G153E counted along it
Procedure: as §1

PYR1 mutant 27-18 = biological target: T4, PYR1 mutant 27-18 (Arabidopsis thaliana, UniProt O49686, K59R/S47P/Y120H); assay: as above; type: cell-based; details: 1, 5, 10, 25, and 50 μM
T4 construct: expressed in transfected cells; host or cells: S. cerevisiae YRG-2 expressing pAD-HAB1
T4 sequence (O49686 whole entry S47P/K59R/Y120H): as the sequence (O49686 whole entry P42S/K59R/Y120C/E153G) above, with S42P, S47P, C120H, G153E counted along it
T4 sequence (Q9CAJ0 23-511, stated change not applied, further chain): as the sequence (Q9CAJ0 23-511) above
Procedure: as §1

CC1(C(=O)Nc2ccc(O)c(Cl)c2Cl)CCCCC1 [fenhexamid]
Growth in response to fenhexamid (selection) [1]: fenhexamid responsive | Water loss from detached rosettes [2]: does not affect water loss | Response to fenhexamid in in vitro PP2C inhibition assays [3]: respond | Response to fenhexamid (LacZ staining) (PYR1 mutant 27-9; 1 μM): weakly positive | Response to fenhexamid (LacZ staining) (PYR1 mutant 27-9; 5, 10, 25, and 50 μM): strongly responded | Response to fenhexamid (LacZ staining) (PYR1 mutant 27-36): responsive | Response to fenhexamid (LacZ staining) (PYR1 mutant 27-18): strongly responded
